Source: PubChem BioAssay (NCI)
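At the GI50, growth is halved. The concentration for full growth arrest is given as TGI.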

Legend:
Assay in all cases: DTP human tumour cell line panel, 384-well format
UO-31 renal = tested on: UO-31 renal
786-0 renal = tested on: 786-0 renal
HCT-116 colon = tested on: HCT-116 colon
T-47D breast = tested on: T-47D breast
K-562 leukemia = tested on: K-562 leukemia
TK-10 renal = tested on: TK-10 renal
OVCAR-5 ovarian = tested on: OVCAR-5 ovarian
CCRF-CEM leukemia = tested on: CCRF-CEM leukemia
HT29 colon = tested on: HT29 colon
SK-MEL-28 melanoma = tested on: SK-MEL-28 melanoma
SF-295 CNS = tested on: SF-295 CNS
UACC-62 melanoma = tested on: UACC-62 melanoma
BT-549 breast = tested on: BT-549 breast
ACHN renal = tested on: ACHN renal
A549 NSCLC = tested on: A549 NSCLC
OVCAR-8 ovarian = tested on: OVCAR-8 ovarian
M14 melanoma = tested on: M14 melanoma
SK-MEL-5 melanoma = tested on: SK-MEL-5 melanoma
HCT-15 colon = tested on: HCT-15 colon
UACC-257 melanoma = tested on: UACC-257 melanoma
A498 renal = tested on: A498 renal
HCC-2998 colon = tested on: HCC-2998 colon
SN12C renal = tested on: SN12C renal
NCI-H322M lung = tested on: NCI-H322M lung
NCI-H226 lung = tested on: NCI-H226 lung
NCI-H460 NSCLC = tested on: NCI-H460 NSCLC
IGROV1 ovarian = tested on: IGROV1 ovarian
CAKI-1 renal = tested on: CAKI-1 renal
MOLT-4 leukemia = tested on: MOLT-4 leukemia
U251 glioblastoma = tested on: U251 glioblastoma
HOP-62 NSCLC = tested on: HOP-62 NSCLC
COLO 205 colon = tested on: COLO 205 colon
RXF 393 renal = tested on: RXF 393 renal
SF-539 CNS = tested on: SF-539 CNS
PC-3 prostate = tested on: PC-3 prostate
OVCAR-3 ovarian = tested on: OVCAR-3 ovarian
SNB-19 CNS = tested on: SNB-19 CNS
RPMI-8226 leukemia = tested on: RPMI-8226 leukemia
DU-145 prostate = tested on: DU-145 prostate
HOP-92 NSCLC = tested on: HOP-92 NSCLC
HL-60(TB) leukemia = tested on: HL-60(TB) leukemia
SW-620 colon = tested on: SW-620 colon
KM12 colon = tested on: KM12 colon
MDA-MB-435 melanoma = tested on: MDA-MB-435 melanoma
SF-268 CNS = tested on: SF-268 CNS
LOX IMVI melanoma = tested on: LOX IMVI melanoma
NCI/ADR-RES ovarian = tested on: NCI/ADR-RES ovarian

`CN(CCO)CC[C@H](CSc1ccccc1)Nc1ccc(S(=O)(=O)NC(=O)c2ccc(N3CCC([C@@H](O)c4ccccc4-c4ccc(Cl)cc4)CC3)cc2)cc1S(=O)(=O)C(F)(F)F` was tested, and the GI50 (UO-31 renal) was > 100 µM, the TGI (UO-31 renal) was > 100 µM and the GI50 ([…]-0 renal) was 2.51 µM. For the same molecule, the TGI (786-0 renal) was 6.68 µM, the GI50 (HCT-116 colon) was 2.97 µM and the TGI (HCT-116 colon) was 9.36 µM. It also gave a GI50 (T-47D breast) of 3.88 µM, a TGI (T-47D breast) of 14.6 µM and a GI50 (K-562 leukemia) of 3.04 µM. For the same molecule, the TGI (K-562 leukemia) was 8.08 µM, the GI50 (TK-10 renal) was 3.78 µM and the TGI (TK-10 renal) was 15.9 µM. For the same molecule, the GI50 (OVCAR-5 ovarian) was 5 µM, the TGI (OVCAR-5 ovarian) was 21.3 µM and the GI50 (CCRF-CEM leukemia) was < 0.01 µM. It also gave a TGI (CCRF-CEM leukemia) of 0.0137 µM, a GI50 (HT29 colon) of 4.35 µM and a TGI (HT29 colon) of 15.5 µM. The GI50 (SK-MEL-28 melanoma) was 2.31 µM, the TGI (SK-MEL-28 melanoma) was 4.96 µM and the GI50 (SF-295 CNS) was 2.16 µM. It also gave a TGI (SF-295 CNS) of 5.23 µM, a GI50 (UACC-62 melanoma) of 2.32 µM and a TGI (UACC-62 melanoma) of 5.75 µM. The GI50 (BT-549 breast) was 3.45 µM, the TGI (BT-549 breast) was 10.3 µM and the GI50 (ACHN renal) was 22.6 µM. For the same molecule, the TGI (ACHN renal) was > 100 µM, the GI50 (A549 NSCLC) was > 100 µM and the TGI (A549 NSCLC) was > 100 µM. The GI50 (OVCAR-8 ovarian) was 11.9 µM, the TGI (OVCAR-8 ovarian) was 24.4 µM and the GI50 (M14 melanoma) was 2.82 µM. It also gave a TGI (M14 melanoma) of 7.47 µM, a GI50 (SK-MEL-5 melanoma) of 1.81 µM and a TGI (SK-MEL-5 melanoma) of 6.32 µM. For the same molecule, the GI50 (HCT-15 colon) was 64.9 µM, the TGI (HCT-15 colon) was > 100 µM and the GI50 (UACC-257 melanoma) was 2.29 µM. For the same molecule, the TGI (UACC-257 melanoma) was 13.6 µM, the GI50 (A498 renal) was 1.73 µM and the TGI (A498 renal) was 6.09 µM. The GI50 (HCC-2998 colon) was < 0.01 µM, the TGI (HCC-2998 colon) was 0.199 µM and the GI50 (SN12C renal) was 4.04 µM. For the same molecule, the TGI (SN12C renal) was 13.9 µM, the GI50 (NCI-H322M lung) was 2.72 µM and the TGI (NCI-H322M lung) was 9.6 µM. The GI50 (NCI-H226 lung) was 1.76 µM, the TGI (NCI-H226 lung) was 6.04 µM and the GI50 (NCI-H460 NSCLC) was 13.7 µM. It also gave a TGI (NCI-H460 NSCLC) of 27.9 µM, a GI50 (IGROV1 ovarian) of 1.6 µM and a TGI (IGROV1 ovarian) of 3.25 µM. The GI50 (CAKI-1 renal) was 5.42 µM, the TGI (CAKI-1 renal) was 15.9 µM and the GI50 (MOLT-4 leukemia) was < 0.01 µM. The TGI (MOLT-4 leukemia) was < 0.01 µM, the GI50 (U251 glioblastoma) was 2.62 µM and the TGI (U251 glioblastoma) was 6.48 µM. It also gave a GI50 (HOP-62 NSCLC) of 5.33 µM, a TGI (HOP-62 NSCLC) of 16.7 µM and a GI50 (COLO 205 colon) of 0.807 µM. The TGI (COLO 205 colon) was 2.13 µM, the GI50 (RXF 393 renal) was < 0.01 µM and the TGI (RXF 393 renal) was 0.53 µM. The GI50 (SF-539 CNS) was 4.11 µM, the TGI (SF-539 CNS) was 14.7 µM and the GI50 (PC-3 prostate) was 2.43 µM. For the same molecule, the TGI (PC-3 prostate) was 5.71 µM, the GI50 (OVCAR-3 ovarian) was 3.54 µM and the TGI (OVCAR-3 ovarian) was 12.2 µM. For the same molecule, the GI50 (SNB-19 CNS) was 4.85 µM, the TGI (SNB-19 CNS) was 17.2 µM and the GI50 (RPMI-8226 leukemia) was < 0.01 µM. For the same molecule, the TGI (RPMI-8226 leukemia) was < 0.01 µM, the GI50 (DU-145 prostate) was 18.6 µM and the TGI (DU-145 prostate) was 55.9 µM. The GI50 (HOP-92 NSCLC) was < 0.01 µM, the TGI (HOP-92 NSCLC) was 0.301 µM and the GI50 (HL-60(TB) leukemia) was < 0.01 µM. For the same molecule, the TGI (HL-60(TB) leukemia) was < 0.01 µM, the GI50 (SW-620 colon) was 4.48 µM and the TGI (SW-620 colon) was 16.2 µM. It also gave a GI50 (KM12 colon) of 2.69 µM, a TGI (KM12 colon) of 6.67 µM and a GI50 (MDA-MB-435 melanoma) of 3.42 µM. It also gave a TGI (MDA-MB-435 melanoma) of 9.42 µM, a GI50 (SF-268 CNS) of 4.16 µM and a TGI (SF-268 CNS) of 13.9 µM. The GI50 (LOX IMVI melanoma) was 1.96 µM, the TGI (LOX IMVI melanoma) was 3.62 µM and the GI50 (NCI/ADR-RES ovarian) was > 100 µM. For the same molecule, the TGI (NCI/ADR-RES ovarian) was > 100 µM.
